Measurements taken from patent publication US9012428B2, “Uracyl spirooxetane nucleoside phosphoramidates” (Janssen Products, LP, priority 2010, dated 2015).

Key:
[1] = test system: HIV; details: literature report; cited from earlier work
[2] = Cytotoxicity in Huh-7 cells; type: cell-based; details: human
Description: (§1) The in vitro antiviral activity against HCV of the compound of formula I was tested in a cellular HCV replicon system based on Lohmann et al. (1999) Science 285:110-113, with the further modifications described by Krieger et al. (2001) Journal of Virology 75: 4614-4624 (incorporated herein by reference), which is further exemplified in the examples section. This model, while not a complete infection model for HCV, is widely accepted as the most robust and efficient model of autonomous HCV RNA replication currently available. It will be appreciated that it is important to distinguish between compounds that specifically interfere with HCV functions from those that exert cytotoxic or cytostatic effects in the HCV replicon model, and as a consequence cause a decrease in HCV RNA or linked reporter enzyme concentration. Assays are known in the field for the evaluation of cellular cytotoxicity based for example on the activity of mitochondrial enzymes using fluorogenic redox dyes such as resazurin. Furthermore, cellular counter screens exist for the evaluation of non-selective inhibition of linked reporter gene activity, such as firefly luciferase. […]

[3] = test system: HCV type 1b replicon; assay: HCV replicon assay (Huh-Luc, luciferase readout); type: cell-based; details: Hepatitis C virus, 72 h; Huh-Luc replicon cells, three days incubation, luciferase activity
Description: as §1, with “concentration.” for “concentration. Assays are known in the field for the evaluation of cellular cytotoxicity based for example on the activity of mitochondrial enzymes using fluorogenic redox dyes such as resazurin. Furthermore, cellular counter screens exist for the evaluation of non-selective inhibition of linked reporter gene activity, such as firefly luciferase.”
The replicon cells were plated in 384-well plates in the presence of the test and control compounds which were added in various concentrations. Following an incubation of three days, HCV replication was measured by assaying luciferase activity (using standard luciferase assay substrates and reagents and a Perkin Elmer ViewLux™ ultraHTS microplate imager). […] The inhibitory activity of the compound on luciferase activity was monitored on the Huh-Luc cells, enabling a dose-response curve for the test compound. […]

Structure (SMILES)	activity against HIV [1]	CC50 [2] [µM]	EC50 [3] [µM]
Cc1cn([C@@H]2O[C@H](CO)[C@@H](O)[C@]23CCO3)c(=O)[nH]c1=O [1-(2-O,2-C-ethano-β-D-ribofuranosyl)thymine]	no activity was found	–	–
O=c1ccn([C@@H]2O[C@H](CO)[C@@H](O)[C@]23CCO3)c(=O)[nH]1 [1-(2-O,2-C-ethano-β-D-ribofuranosyl)uracil]	no activity was found	–	–
CCCCOC(=O)[C@H](C)N[P@](=O)(OC[C@H]1O[C@@H](n2ccc(=O)[nH]c2=O)[C@@]2(CCO2)[C@@H]1O)Oc1ccccc1 [Compound P1, butyl N—[(S)-{[(4R,5R,7R,8R)-5-(2,4-dioxo-3,4-dihydro-pyrimidin-1(2H)-yl)-8-hydroxy-1,6-dioxaspiro[3.4]oct-7-yl]methoxy}(phenoxy)-phosphoryl]-L-alaninate]	–	> 98	2.51
